{"source": "PubChem BioAssay (NCI)", "note": "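Where inhibition never reached the appropriate level, the endpoint shown equals the highest concentration tested. Otherwise, values were interpolated linearly from a five-concentration, 48-hour dose response in 96-well plates. At the GI50, growth is halved. TGI denotes the concentration required for complete inhibition of growth.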 Where a SMILES comes first, the peptide text is derived from it. [ ]: non-standard residue; d: D form. The star is where a group is joined. ξ: configuration not given here. X6 = FC(F)(F)c1cc(NC(=S)*)cc(C(F)(F)F)c1; ξF = NC(Cc1ccccc1)C(=O)O"}
{"system": "UACC-257 melanoma", "experiment": "NCI anticancer screen, dose series, 48 h", "units": {"GI50": "µM", "TGI": "µM"}}
{"compound": "COC(=O)[C@@H](NC(=O)CNC(=O)[C@H]1CCCN1C(=O)C(Cc1ccccc1)NC(=S)Nc1cc(C(F)(F)F)cc(C(F)(F)F)c1)C(C)C", "note": "(stereo not given in full) (X6-[ξF][dP]GV-OMe)", "GI50": 2.14, "TGI": 5.75}
{"system": "HCC-2998 colon", "experiment": "NCI anticancer screen, dose series, 48 h", "units": {"GI50": "µM", "TGI": "µM"}}
{"compound": "OCc1ccc(N2CCC2c2ccc(F)cc2)cc1Cl", "note": "(stereo not given)", "GI50": 17.5, "TGI": 46}
{"compound": "COC(=O)c1cc2c(n1S(=O)(=O)c1ccc(C)cc1)C(=O)C(=O)c1[nH]cc(C(=O)OCc3ccccc3)c1-2", "TGI": 0.634}
{"compound": "O=C(Nc1ccccc1OC(F)(F)F)Nc1n[nH]c2ccccc12", "GI50": 55.9, "TGI": "> 100"}
{"compound": "COC(=O)[C@@H](NC(=O)CNC(=O)[C@H]1CCCN1C(=O)C(Cc1ccccc1)NC(=S)Nc1cc(C(F)(F)F)cc(C(F)(F)F)c1)C(C)C", "note": "(stereo not given in full) (X6-[ξF][dP]GV-OMe)", "GI50": 3.39, "TGI": 11.9}
{"system": "TK-10 renal", "experiment": "NCI anticancer screen, dose series, 48 h", "units": {"GI50": "µM", "TGI": "µM"}}
{"compound": "OCc1ccc(N2CCC2c2ccc(F)cc2)cc1Cl", "note": "(stereo not given)", "GI50": 0.225, "TGI": 1.61}
{"compound": "COC(=O)c1cc2c(n1S(=O)(=O)c1ccc(C)cc1)C(=O)C(=O)c1[nH]cc(C(=O)OCc3ccccc3)c1-2", "TGI": 1.51}
{"compound": "O=C(Nc1ccccc1OC(F)(F)F)Nc1n[nH]c2ccccc12", "GI50": 37.9, "TGI": "> 100"}
{"compound": "COC(=O)[C@@H](NC(=O)CNC(=O)[C@H]1CCCN1C(=O)C(Cc1ccccc1)NC(=S)Nc1cc(C(F)(F)F)cc(C(F)(F)F)c1)C(C)C", "note": "(stereo not given in full) (X6-[ξF][dP]GV-OMe)", "GI50": 4.45, "TGI": 18.8}
{"system": "PC-3 prostate", "experiment": "NCI anticancer screen, dose series, 48 h", "units": {"GI50": "µM", "TGI": "µM"}}
{"compound": "OCc1ccc(N2CCC2c2ccc(F)cc2)cc1Cl", "note": "(stereo not given)", "GI50": 21, "TGI": 67.1}
{"compound": "COC(=O)c1cc2c(n1S(=O)(=O)c1ccc(C)cc1)C(=O)C(=O)c1[nH]cc(C(=O)OCc3ccccc3)c1-2", "TGI": 1.13}
{"compound": "O=C(Nc1ccccc1OC(F)(F)F)Nc1n[nH]c2ccccc12", "GI50": 31.4, "TGI": "> 100"}
{"compound": "COC(=O)[C@@H](NC(=O)CNC(=O)[C@H]1CCCN1C(=O)C(Cc1ccccc1)NC(=S)Nc1cc(C(F)(F)F)cc(C(F)(F)F)c1)C(C)C", "note": "(stereo not given in full) (X6-[ξF][dP]GV-OMe)", "GI50": 2.48}
{"system": "SF-295 CNS", "experiment": "NCI anticancer screen, dose series, 48 h", "units": {"GI50": "µM", "TGI": "µM"}}
{"compound": "OCc1ccc(N2CCC2c2ccc(F)cc2)cc1Cl", "note": "(stereo not given)", "GI50": 0.438, "TGI": 7.62}
{"compound": "COC(=O)c1cc2c(n1S(=O)(=O)c1ccc(C)cc1)C(=O)C(=O)c1[nH]cc(C(=O)OCc3ccccc3)c1-2", "TGI": 0.259}
{"compound": "O=C(Nc1ccccc1OC(F)(F)F)Nc1n[nH]c2ccccc12", "GI50": 39, "TGI": "> 100"}
{"compound": "COC(=O)[C@@H](NC(=O)CNC(=O)[C@H]1CCCN1C(=O)C(Cc1ccccc1)NC(=S)Nc1cc(C(F)(F)F)cc(C(F)(F)F)c1)C(C)C", "note": "(stereo not given in full) (X6-[ξF][dP]GV-OMe)", "GI50": 2.33, "TGI": 6.12}
{"system": "SK-MEL-28 melanoma", "experiment": "NCI anticancer screen, dose series, 48 h", "units": {"GI50": "µM", "TGI": "µM"}}
{"compound": "OCc1ccc(N2CCC2c2ccc(F)cc2)cc1Cl", "note": "(stereo not given)", "GI50": 28.7, "TGI": "> 100"}
{"compound": "COC(=O)c1cc2c(n1S(=O)(=O)c1ccc(C)cc1)C(=O)C(=O)c1[nH]cc(C(=O)OCc3ccccc3)c1-2", "TGI": 0.226}
{"compound": "O=C(Nc1ccccc1OC(F)(F)F)Nc1n[nH]c2ccccc12", "GI50": 42.2, "TGI": "> 100"}
{"compound": "COC(=O)[C@@H](NC(=O)CNC(=O)[C@H]1CCCN1C(=O)C(Cc1ccccc1)NC(=S)Nc1cc(C(F)(F)F)cc(C(F)(F)F)c1)C(C)C", "note": "(stereo not given in full) (X6-[ξF][dP]GV-OMe)", "GI50": 1.84, "TGI": 3.38}
{"system": "OVCAR-8 ovarian", "experiment": "NCI anticancer screen, dose series, 48 h", "units": {"GI50": "µM", "TGI": "µM"}}
{"compound": "OCc1ccc(N2CCC2c2ccc(F)cc2)cc1Cl", "note": "(stereo not given)", "GI50": 23.6, "TGI": "> 100"}
{"compound": "COC(=O)c1cc2c(n1S(=O)(=O)c1ccc(C)cc1)C(=O)C(=O)c1[nH]cc(C(=O)OCc3ccccc3)c1-2", "TGI": 0.706}
{"compound": "O=C(Nc1ccccc1OC(F)(F)F)Nc1n[nH]c2ccccc12", "GI50": 29.6, "TGI": "> 100"}
{"compound": "COC(=O)[C@@H](NC(=O)CNC(=O)[C@H]1CCCN1C(=O)C(Cc1ccccc1)NC(=S)Nc1cc(C(F)(F)F)cc(C(F)(F)F)c1)C(C)C", "note": "(stereo not given in full) (X6-[ξF][dP]GV-OMe)", "GI50": 3.75, "TGI": 53.6}
{"system": "SNB-19 CNS", "experiment": "NCI anticancer screen, dose series, 48 h", "units": {"GI50": "µM", "TGI": "µM"}}
{"compound": "OCc1ccc(N2CCC2c2ccc(F)cc2)cc1Cl", "note": "(stereo not given)", "GI50": 36.6, "TGI": "> 100"}
{"compound": "COC(=O)c1cc2c(n1S(=O)(=O)c1ccc(C)cc1)C(=O)C(=O)c1[nH]cc(C(=O)OCc3ccccc3)c1-2", "TGI": 0.441}
{"compound": "O=C(Nc1ccccc1OC(F)(F)F)Nc1n[nH]c2ccccc12", "GI50": 78.3, "TGI": "> 100"}
{"compound": "COC(=O)[C@@H](NC(=O)CNC(=O)[C@H]1CCCN1C(=O)C(Cc1ccccc1)NC(=S)Nc1cc(C(F)(F)F)cc(C(F)(F)F)c1)C(C)C", "note": "(stereo not given in full) (X6-[ξF][dP]GV-OMe)", "GI50": 2.56, "TGI": 9.49}
